Legend:
Adenosine receptor A2b = molecular target: T1, Adenosine receptor A2b (Homo sapiens, UniProt P29275); assay: Displacement of [3H]ZM-241385 from Adenosine A2B receptor expressed in HEK cells; format: cell-based, HEK293
T1 sequence (P29275 whole entry): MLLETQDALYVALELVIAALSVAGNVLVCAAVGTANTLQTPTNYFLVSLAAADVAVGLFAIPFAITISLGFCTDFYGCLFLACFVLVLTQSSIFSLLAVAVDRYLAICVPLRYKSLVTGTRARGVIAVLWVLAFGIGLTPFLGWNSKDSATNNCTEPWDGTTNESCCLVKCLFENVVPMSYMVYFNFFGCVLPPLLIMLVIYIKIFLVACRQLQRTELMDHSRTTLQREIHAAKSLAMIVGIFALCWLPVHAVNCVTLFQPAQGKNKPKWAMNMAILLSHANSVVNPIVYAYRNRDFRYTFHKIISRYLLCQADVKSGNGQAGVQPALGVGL

Adenosine receptor A1 = molecular target: T2, Adenosine receptor A1 (Homo sapiens, UniProt P30542); assay: Displacement of [3H]CPX from Adenosine A1 receptor expressed in CHO cells; format: cell-based
T2 sequence (P30542 whole entry): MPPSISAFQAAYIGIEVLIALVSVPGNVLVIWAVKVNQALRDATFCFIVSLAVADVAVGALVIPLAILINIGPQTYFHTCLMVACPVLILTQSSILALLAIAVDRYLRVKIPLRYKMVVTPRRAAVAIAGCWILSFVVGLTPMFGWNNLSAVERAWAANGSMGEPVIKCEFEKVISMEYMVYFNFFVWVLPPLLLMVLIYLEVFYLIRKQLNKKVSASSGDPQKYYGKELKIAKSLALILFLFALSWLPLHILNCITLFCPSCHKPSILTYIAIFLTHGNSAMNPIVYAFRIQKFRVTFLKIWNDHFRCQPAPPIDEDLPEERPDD

Adenosine receptor A2a = Adenosine receptor A2a (Homo sapiens, UniProt P29274); assay: Displacement of [3H]ZM-241385 from Adenosine A2A receptor expressed in HEK cells; format: cell-based, HEK293
Adenosine receptor A3 = molecular target: T3, Adenosine receptor A3 (Homo sapiens, UniProt P0DMS8); assay: Displacement of [125I]AB-MECA from Adenosine A3 receptor expressed in CHO cells; format: cell-based
T3 sequence (P0DMS8 whole entry): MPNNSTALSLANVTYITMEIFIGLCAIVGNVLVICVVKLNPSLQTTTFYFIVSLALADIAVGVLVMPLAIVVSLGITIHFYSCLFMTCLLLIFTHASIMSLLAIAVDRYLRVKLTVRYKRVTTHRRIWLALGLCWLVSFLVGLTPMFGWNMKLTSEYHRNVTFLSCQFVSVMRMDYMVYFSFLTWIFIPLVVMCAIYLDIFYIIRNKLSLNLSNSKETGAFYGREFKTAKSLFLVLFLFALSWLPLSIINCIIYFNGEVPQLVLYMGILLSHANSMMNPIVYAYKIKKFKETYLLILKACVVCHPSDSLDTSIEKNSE

[1] = molecular target: Adenosine receptors; A1 & A2b (Homo sapiens) (UniProt P30542+P29275); assay: Selectivity of adenosine A1 receptor over adenosine A2B receptor; format: protein assay
[2] = molecular target: Adenosine A2 receptor (Homo sapiens) (UniProt P29275+P29274); assay: Selectivity of adenosine A2A receptor over adenosine A2B receptor; format: protein assay
[3] = molecular target: Adenosine receptors; A2b & A3 (Homo sapiens) (UniProt P29275+P0DMS8); assay: Selectivity of adenosine A3 receptor over adenosine A2B receptor; format: protein assay
[4] = Oral bioavailability in rat administered at 1 mg/kg; format: ADME, organism-based; conditions: in vivo
[5] = AUC in rat administered at 1 mg/kg; format: ADME, organism-based; parameters: dose 1 mg/kg; conditions: plasma
[6] = Half life in rat administered at 1 mg/kg; format: ADME, organism-based; parameters: dose 1 mg/kg; conditions: in vivo

Chain of Adenosine receptor A2a (P29274 whole entry): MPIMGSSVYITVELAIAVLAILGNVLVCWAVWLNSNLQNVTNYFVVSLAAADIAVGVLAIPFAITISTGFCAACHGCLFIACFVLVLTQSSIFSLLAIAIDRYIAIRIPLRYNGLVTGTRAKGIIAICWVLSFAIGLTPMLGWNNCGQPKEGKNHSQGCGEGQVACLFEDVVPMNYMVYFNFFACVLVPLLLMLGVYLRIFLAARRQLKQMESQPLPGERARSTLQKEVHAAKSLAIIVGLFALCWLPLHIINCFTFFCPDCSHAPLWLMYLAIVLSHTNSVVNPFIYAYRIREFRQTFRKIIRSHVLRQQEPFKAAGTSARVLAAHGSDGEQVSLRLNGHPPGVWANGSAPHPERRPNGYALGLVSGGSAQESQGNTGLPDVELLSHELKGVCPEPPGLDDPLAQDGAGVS
Chain of Adenosine A2 receptor (Homo sapiens) (P29274 whole entry, looked up, one chain of several): as the sequence (P29274 whole entry) above

SMILES | Ki (Adenosine receptor A2b) | Ki (Adenosine receptor A1) | Ki (Adenosine receptor A2a) | Ki (Adenosine receptor A3) | Ratio Ki [1] | Ratio Ki [2] | Ratio Ki [3] | bioavailability [4] | AUC [5] | half-life [6]
CCCn1c(=O)c2nc(-c3cnn(Cc4noc(-c5ccc(C(F)(F)F)cc5)n4)c3)[nH]c2n(CCC)c1=O | 0.021 µM | > 6 µM | > 5 µM | 1.3 µM | > 285 | > 238 | 61 |  |  | 
CCCn1c(=O)c2nc(-c3cnn(Cc4noc(-c5ccc(Cl)cc5)n4)c3)[nH]c2n(CCC)c1=O | 0.039 µM | 2.9 µM | > 5 µM | > 8.3 µM | 74 | > 128 | > 213 |  |  | 
CCCn1c(=O)c2[nH]c(-c3cnn(Cc4noc(-c5ccccc5)n4)c3)nc2n(CCC)c1=O | 0.021 µM | 1 µM | 1.8 µM | 0.63 µM | 47 | 85 | 30 |  |  | 
CCCn1c(=O)c2nc(-c3cnn(Cc4nc(-c5ccccc5Cl)no4)c3)[nH]c2n(CCC)c1=O | 0.019 µM | 2.5 µM | 2.5 µM | 0.49 µM | 130 | 130 | 25 |  |  | 
CCCn1c(=O)c2nc(-c3cnn(Cc4nc(-c5cccc(C(F)(F)F)c5)no4)c3)[nH]c2n(CCC)c1=O | 0.042 µM | 3.5 µM | > 5 µM | 0.96 µM | 83 | > 119 | 22 |  |  | 
CCCn1c(=O)c2nc(-c3cnn(Cc4cc(-c5cccc(Cl)c5)on4)c3)[nH]c2n(CCC)c1=O | 0.163 µM | 4.6 µM | > 5 µM | 4.4 µM | 28 | > 30 | 27 |  |  | 
CCCn1c(=O)c2nc(-c3cnn(Cc4noc(-c5ccc(OC)cc5)n4)c3)[nH]c2n(CCC)c1=O | 0.123 µM | 3.9 µM | > 5 µM | 2.3 µM | 32 | > 40 | 19 |  |  | 
CCCn1c(=O)c2nc(-c3cnn(Cc4cc(-c5cccc(OC)c5)on4)c3)[nH]c2n(CCC)c1=O | 0.131 µM | 3.5 µM | > 5 µM | > 5 µM | 27 | > 38 | > 38 |  |  | 
CCCn1c(=O)c2nc(-c3cnn(Cc4nc(-c5ccc(Cl)cc5)no4)c3)[nH]c2n(CCC)c1=O | 0.021 µM | 0.74 µM | 1.8 µM | 0.4 µM | 35 | 85 | 19 | 22% | 2330 ng·h/mL | 1.5 h
CCCn1c(=O)c2nc(-c3cnn(Cc4noc(-c5cccc(Cl)c5)n4)c3)[nH]c2n(CCC)c1=O | 0.134 µM | 3 µM | > 5 µM | 3 µM | 22 | > 37 | 22 |  |  | 
CCCn1c(=O)c2nc(-c3cnn(Cc4cc(-c5ccccc5C(F)(F)F)on4)c3)[nH]c2n(CCC)c1=O | 0.121 µM | 3.7 µM | > 5 µM | 4.2 µM | 30 | > 41 | 34 |  |  | 

Reference: ChEMBL document CHEMBL1147761, “Novel 1,3-dipropyl-8-(1-heteroarylmethyl-1H-pyrazol-4-yl)-xanthine derivatives as high affinity and selective A2B adenosine receptor antagonists” (Bioorg Med Chem Lett, 2006)
